One assay addresses T1, DLK (Homo sapiens, UniProt Q12852).
T1 construct: 10 nM DLK, catalytic domain, Carna Biosiences; purchased Carna Biosciences ('Carna Biosiences' [sic])
T1 sequence (Q12852 125-366 limits assumed): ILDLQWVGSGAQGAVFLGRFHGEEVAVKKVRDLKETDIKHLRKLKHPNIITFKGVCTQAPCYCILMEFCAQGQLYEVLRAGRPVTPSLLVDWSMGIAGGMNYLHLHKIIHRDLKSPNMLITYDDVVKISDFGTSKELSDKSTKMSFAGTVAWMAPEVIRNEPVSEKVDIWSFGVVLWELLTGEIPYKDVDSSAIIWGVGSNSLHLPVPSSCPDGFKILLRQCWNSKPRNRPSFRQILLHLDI
The experiment in a line: DLK biochemical assay (TR-FRET, MKK7 phosphorylation). An outline of the steps: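 DLK catalytic domain (10 nM) phosphorylates His-MKK7 (15 nM) at 60 μM ATP for 90 min at RT in pH 7.5 Hepes buffer (final concentrations). Phospho-T275/S277 is detected by TR-FRET (Eu anti-phospho donor, XL665 anti-His acceptor) after 16 h at 37° C (1536 format) or 4° C (384 format).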

The target of a further assay is T2, LZK (Homo sapiens, UniProt O43283).
T2 construct: 10 nM LZK, catalytic domain, Carna Biosiences in assay buffer; purchased Carna Biosciences ('Carna Biosiences' [sic])
T2 sequence (O43283 168-409 limits assumed): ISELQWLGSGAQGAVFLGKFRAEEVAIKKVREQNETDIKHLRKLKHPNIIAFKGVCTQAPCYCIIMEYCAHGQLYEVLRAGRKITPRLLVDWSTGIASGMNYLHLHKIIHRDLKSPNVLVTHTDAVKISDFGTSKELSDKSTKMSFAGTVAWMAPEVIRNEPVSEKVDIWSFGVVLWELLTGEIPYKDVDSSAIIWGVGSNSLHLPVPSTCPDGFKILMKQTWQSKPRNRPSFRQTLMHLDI
The experiment in a line: LZK biochemical assay (TR-FRET, MKK7 phosphorylation). The essentials: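 LZK catalytic domain (10 nM) phosphorylates His-MKK7 (15 nM) with 15 µM ATP, all final, for 90 min at RT in HEPES buffer pH 7.5 with MgCl2. Phospho-T275/S277 detected by TR-FRET (Eu anti-phospho donor, XL665 anti-His acceptor) after 16 h at 32 °C in EDTA stop buffer. Inhibition lowers the 665/Eu ratio.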
(In TR-FRET formats the signal depends on donor and acceptor labels being close together.)

The results in this text go back to patent US20230086702A1, “SUBSTITUTED 2-AMINO-PYRAZOLYL-[1,2,4]TRIAZOLO[1,5A]PYRIDINE DERIVATIVES AND USE THEREOF” (The Johns Hopkins University, priority 2019, published 2023).

By pIC50 is commonly meant the negative decadic logarithm of the IC50, by convention in mol/L.

Structures are written as SMILES. pIC50: −log10 of the molar value.

Regarding `Nc1nc2c(-c3ccc(=O)n(CC(F)F)c3)cc(-c3cnn(C(c4ccc(C(F)(F)F)nc4)C4CCOCC4)c3)cn2n1` (single isomer, unassigned) [II-158, 5-[2-Amino-6-(1-{tetrahydro-2H-pyran-4-yl[6-(trifluoromethyl)pyridin-3-yl]methyl}-1H-pyrazol-4-yl)[1,2,4]triazolo[1,5-a]pyridin-8-yl]-1-(2,2-difluoroethyl)pyridin-2(1H)-one], the pIC50 is 9.40 against DLK and 8.92 against LZK.

For the molecule `Nc1nc2c(-c3ccc(=O)n(CC(F)(F)F)c3)cc(-c3cnn(C(c4ccc(C(F)(F)F)nc4)C4CCOCC4)c3)cn2n1` (single isomer, unassigned) [II-161, 5-[2-Amino-6-(1-{tetrahydro-2H-pyran-4-yl[6-(trifluoromethyl)pyridin-3-yl]methyl}-1H-pyrazol-4-yl)[1,2,4]triazolo[1,5-a]pyridin-8-yl]-1-(2,2,2-trifluoroethyl)pyridin-2(1H)-one], the results for the pIC50 at DLK and at LZK were 8.07 and 7.92, respectively.

Regarding `CCC(c1ccc(OC(F)(F)F)nc1)n1cc(-c2cc(-c3ccc(=O)n(CC(F)(F)F)c3)c3nc(N)nn3c2)cn1` (single isomer, unassigned) [II-164, 5-[2-Amino-6-(1-{1-[6-(trifluoromethoxy)pyridin-3-yl]propyl}-1H-pyrazol-4-yl)[1,2,4]triazolo[1,5-a]pyridin-8-yl]-1-(2,2,2-trifluoroethyl)pyridin-2(1H)-one], the pIC50 was 8.46 on DLK and 7.77 against LZK.

In the case of `CCC(c1ccc(OC(F)(F)F)nc1)n1cc(-c2cc(-c3ccc(=O)n(CC(F)(F)F)c3)c3nc(N)nn3c2)cn1` (single isomer, unassigned) [II-165, 5-[2-Amino-6-(1-{1-[6-(trifluoromethoxy)pyridin-3-yl]propyl}-1H-pyrazol-4-yl)[1,2,4]triazolo[1,5-a]pyridin-8-yl]-1-(2,2,2-trifluoroethyl)pyridin-2(1H)-one], the negative-log IC50 (pIC50) against DLK was 7.59; at LZK, 7.24.

For the molecule `Nc1nc2c(-c3cn(CC(F)(F)F)c(=O)cn3)cc(-c3cnn(C(c4ccc(C(F)(F)F)nc4)C4CCOCC4)c3)cn2n1` (single isomer, unassigned) [II-167, 5-[2-Amino-6-(1-{tetrahydro-2H-pyran-4-yl[6-(trifluoromethyl)pyridin-3-yl]methyl}-1H-pyrazol-4-yl)[1,2,4]triazolo[1,5-a]pyridin-8-yl]-1-(2,2,2-trifluoroethyl)pyrazin-2(1H)-one], the pIC50 at DLK was 8.89; against LZK it was 8.00.

Turning to `Nc1nc2c(-c3cn(CC(F)(F)F)c(=O)cn3)cc(-c3cnn(C(c4ccc(C(F)(F)F)nc4)C4CCOCC4)c3)cn2n1` (single isomer, unassigned) [II-168, 5-[2-Amino-6-(1-{tetrahydro-2H-pyran-4-yl[6-(trifluoromethyl)pyridin-3-yl]methyl}-1H-pyrazol-4-yl)[1,2,4]triazolo[1,5-a]pyridin-8-yl]-1-(2,2,2-trifluoroethyl)pyrazin-2(1H)-one], the pIC50 is 7.77 on DLK and 7.11 against LZK.

For the molecule `CCC(c1ccc(C(F)(F)F)nc1)n1cc(-c2cc(-c3ccn(C)c(=O)c3)c3nc(N)nn3c2)cn1` (single isomer, unassigned) [II-170, 4-[2-Amino-6-(1-{1-[6-(trifluoromethyl)pyridin-3-yl]propyl}-1H-pyrazol-4-yl)[1,2,4]triazolo[1,5-a]pyridin-8-yl]-1-methylpyridin-2(1H)-one], the pIC50 at DLK was 7.14; on LZK, 6.66.

In the case of `CCC(c1ccc(C(F)(F)F)nc1)n1cc(-c2cc(-c3ccn(C)c(=O)c3)c3nc(N)nn3c2)cn1` (single isomer, unassigned) [II-171, 4-[2-Amino-6-(1-{1-[6-(trifluoromethyl)pyridin-3-yl]propyl}-1H-pyrazol-4-yl)[1,2,4]triazolo[1,5-a]pyridin-8-yl]-1-methylpyridin-2(1H)-one], the values for the pIC50 against DLK and against LZK were 8.03 and 7.39, respectively.

As to `Nc1nc2c(-c3ccn(CC(F)F)c(=O)c3)cc(-c3cnn(C(c4ccc(C(F)(F)F)nc4)C4CCOCC4)c3)cn2n1` (single isomer, unassigned) [II-173, 4-[2-Amino-6-(1-{tetrahydro-2H-pyran-4-yl[6-(trifluoromethyl)pyridin-3-yl]methyl}-1H-pyrazol-4-yl)[1,2,4]triazolo[1,5-a]pyridin-8-yl]-1-(2,2-difluoroethyl)pyridin-2(1H)-one], the pIC50 was 7.96 against DLK and 7.60 on LZK.

Consider `Nc1nc2c(-c3ccn(CC(F)F)c(=O)c3)cc(-c3cnn(C(c4ccc(C(F)(F)F)nc4)C4CCOCC4)c3)cn2n1` (single isomer, unassigned) [II-174, 4-[2-Amino-6-(1-{tetrahydro-2H-pyran-4-yl[6-(trifluoromethyl)pyridin-3-yl]methyl}-1H-pyrazol-4-yl)[1,2,4]triazolo[1,5-a]pyridin-8-yl]-1-(2,2-difluoroethyl)pyridin-2(1H)-one], for which the pIC50 against DLK is 9.00; against LZK, 8.37.

Turning to `Nc1nc2c(-c3ccn(CC(F)(F)F)c(=O)c3)cc(-c3cnn(C(c4ccc(C(F)(F)F)nc4)C4CCOCC4)c3)cn2n1` (single isomer, unassigned) [II-176, 4-[2-Amino-6-(1-{tetrahydro-2H-pyran-4-yl[6-(trifluoromethyl)pyridin-3-yl]methyl}-1H-pyrazol-4-yl)[1,2,4]triazolo[1,5-a]pyridin-8-yl]-1-(2,2,2-trifluoroethyl)pyridin-2(1H)-one], the pIC50 was 8.80 on DLK and 8.25 at LZK.

On to `Nc1nc2c(-c3ccn(CC(F)(F)F)c(=O)c3)cc(-c3cnn(C(c4ccc(C(F)(F)F)nc4)C4CCOCC4)c3)cn2n1` (single isomer, unassigned) [II-177, 4-[2-Amino-6-(1-{tetrahydro-2H-pyran-4-yl[6-(trifluoromethyl)pyridin-3-yl]methyl}-1H-pyrazol-4-yl)[1,2,4]triazolo[1,5-a]pyridin-8-yl]-1-(2,2,2-trifluoroethyl)pyridin-2(1H)-one], for which the figures for the pIC50 against DLK and against LZK were 8.00 and 7.48, respectively.

Turning to `CCC(c1ccc(C(F)(F)F)nc1)n1cc(-c2cc(-c3ccc(=O)n(C(F)F)c3)n3nc(N)nc3c2)cn1` (single isomer, unassigned) [II-180, 5-[2-Amino-7-(1-{1-[6-(trifluoromethyl)pyridin-3-yl]propyl}-1H-pyrazol-4-yl)[1,2,4]triazolo[1,5-a]pyridin-5-yl]-1-(difluoromethyl)pyridin-2(1H)-one], the results for the pIC50 on DLK and on LZK were 7.47 and 7.10, respectively.

For `CCC(c1ccc(C(F)(F)F)nc1)n1cc(-c2cc(-c3ccc(=O)n(C(F)F)c3)n3nc(N)nc3c2)cn1` (single isomer, unassigned) [II-181, 5-[2-Amino-7-(1-{1-[6-(trifluoromethyl)pyridin-3-yl]propyl}-1H-pyrazol-4-yl)[1,2,4]triazolo[1,5-a]pyridin-5-yl]-1-(difluoromethyl)pyridin-2(1H)-one], the pIC50 at DLK is 8.57; against LZK, 8.27.

On to `Nc1nc2cc(-c3cnn(C(c4ccc(C(F)(F)F)nc4)C4CCOCC4)c3)cc(-c3ccc(=O)n(C(F)F)c3)n2n1` (single isomer, unassigned) [II-183, 5-[2-Amino-7-(1-{tetrahydro-2H-pyran-4-yl[6-(trifluoromethyl)pyridin-3-yl]methyl}-1H-pyrazol-4-yl)[1,2,4]triazolo[1,5-a]pyridin-5-yl]-1-(difluoromethyl)pyridin-2(1H)-one], for which the negative logarithm of the IC50 (pIC50) against DLK was 7.66; at LZK, 7.72.

As to `Nc1nc2cc(-c3cnn(C(c4ccc(C(F)(F)F)nc4)C4CCOCC4)c3)cc(-c3ccc(=O)n(C(F)F)c3)n2n1` (single isomer, unassigned) [II-184, 5-[2-Amino-7-(1-{tetrahydro-2H-pyran-4-yl[6-(trifluoromethyl)pyridin-3-yl]methyl}-1H-pyrazol-4-yl)[1,2,4]triazolo[1,5-a]pyridin-5-yl]-1-(difluoromethyl)pyridin-2(1H)-one], the pIC50 against DLK was 8.92; on LZK it was 8.62.

For the molecule `Nc1nc2cc(-c3cnn(C(c4ccc(C(F)(F)F)nc4)C4CCOCC4)c3)cc(-c3ccc(=O)n(CC(F)F)c3)n2n1` (single isomer, unassigned) [II-186, 5-[2-Amino-7-(1-{tetrahydro-2H-pyran-4-yl[6-(trifluoromethyl)pyridin-3-yl]methyl}-1H-pyrazol-4-yl)[1,2,4]triazolo[1,5-a]pyridin-5-yl]-1-(2,2-difluoroethyl)pyridin-2(1H)-one], the results for the pIC50 against DLK and at LZK were 8.39 and 8.35, respectively.
